By IC50 is commonly meant the concentration that inhibits the measured activity by half.

The assay concerns the target human CRFR1 (Homo sapiens (Human), UniProt P34998). Description: CRFR1 Binding Test.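 Further: nonspecific binding was determined with a 4,000-fold excess of unlabelled sauvagine and subtracted from every reading.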 Particulars: competition with 100 pM 125I-CRF, SPA method, membrane fraction of human CRFR1-expressing HEK293 cells; read-out: CRF1 receptor binding capacity IC50.

SMILES strings stand for the structures.

human CRFR1, sequence (P34998 24-415): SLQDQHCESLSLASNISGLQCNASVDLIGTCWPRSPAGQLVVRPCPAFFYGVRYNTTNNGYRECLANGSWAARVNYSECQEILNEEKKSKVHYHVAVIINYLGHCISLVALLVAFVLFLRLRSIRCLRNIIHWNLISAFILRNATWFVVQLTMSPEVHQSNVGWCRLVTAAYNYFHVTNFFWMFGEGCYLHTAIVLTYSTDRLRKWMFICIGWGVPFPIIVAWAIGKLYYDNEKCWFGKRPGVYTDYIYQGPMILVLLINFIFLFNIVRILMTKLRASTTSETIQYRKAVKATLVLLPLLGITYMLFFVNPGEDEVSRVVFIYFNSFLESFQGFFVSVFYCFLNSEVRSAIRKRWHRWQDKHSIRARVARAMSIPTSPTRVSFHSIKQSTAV

For `CCN(CC1C2COCC21)c1c(OC)nn2c(-c3c(OC)cc(C4CC4)cc3OC)csc12` (single isomer, unassigned; diastereomer 1) [Example 97, 3-(4-Cyclopropyl-2,6-dimethoxyphenyl)-N-ethyl-6-methoxy-N-[3-oxabicyclo[3.1.0]hex-6-ylmethyl]pyrazolo[5,1-b][1,3]thiazole-7-amine (diastereomer 1)], the IC50 is 80 nM.
The figure for `COCc1cc(OC)c(-c2csc3c(N(CC4CCC4)CC4C5COCC54)c(OC)nn23)c(OC)c1` (single isomer, unassigned; diastereomer 1) [Example 98, N-(Cyclobutylmethyl)-3-[2,6-dimethoxy-4-(methoxymethyl)phenyl]-6-methoxy-N-[3-oxabicyclo[3.1.0]hex-6-ylmethyl]-pyrazolo[5,1-b][1,3]thiazole-7-amine (diastereomer 1)] is 88 nM.
The figure for `COc1cc(C#N)cc(OC)c1-c1csc2c(N(CC3CC3)CC3C4COCC43)c(OC)nn12` (single isomer, unassigned; diastereomer 1) [Example 100] is 89 nM.
For the compound `COCc1cc(OC)c(-c2csc3c(N(CC4CC4)CC4C5COCC54)c(OC)nn23)c(OC)c1` (single isomer, unassigned; diastereomer 2) [Example 96, N-(Cyclopropylmethyl)-3-[2,6-dimethoxy-4-(methoxymethyl)phenyl]-6-methoxy-N-[3-oxabicyclo[3.1.0]hex-6-ylmethyl]-pyrazolo[5,1-b][1,3]thiazole-7-amine (diastereomer 2)], the 50% inhibitory concentration (IC50) stood at 62 nM.
The figure for `COCc1cc(OC)c(-c2c(SC)sc3c(N(CC4CCOCC4)CC4CC4)c(C)nn23)c(OC)c1` [Example 1, N-(Cyclopropylmethyl)-3-[2,6-dimethoxy-4-(methoxymethyl)phenyl]-6-methyl-2-(methylthio)-N-(tetrahydro-2H-pyran-4-ylmethyl)pyrazolo[5,1-b][1,3]thiazole-7-amine] is 93 nM.
The figure for `CCCN(CCC)c1c(C)nn2c(-c3c(OC)cc(COC)cc3OC)c(SC)sc12` [Example 2] is 39 nM.
The figure for `CCCN(CCC)c1c(C)nn2c(-c3c(OC)cc(COC)cc3OC)c([S+](C)[O-])sc12` (stereo not drawn) [Example 3, 3-[2,6-Dimethoxy-4-(methoxymethyl)phenyl]-6-methyl-2-(methylsulfinyl)-N,N-dipropylpyrazolo[5,1-b][1,3]thiazole-7-amine] is 297 nM.
As to `CCCN(c1c(OC)nn2c(-c3c(OC)cc(COC)cc3OC)c(C)sc12)C1CCOCC1` [Example 7, [3-(2,6-Dimethoxy-4-methoxymethyl-phenyl)-6-methoxy-2-methyl-pyrazolo[5,1-b][1,3]thiazol-7-yl]-propyl-(tetrahydro-pyran-4-yl)-amine], the IC50 worked out at 94 nM.
The same measure for `COCc1cc(OC)c(-c2c(C)sc3c(N(CC4CC4)CC4CCOC4)c(OC)nn23)c(OC)c1` (stereo not drawn) [Example 8, Cyclopropylmethyl-[3-(2,6-dimethoxy-4-methoxymethyl-phenyl)-6-methoxy-2-methyl-pyrazolo[5,1-b][1,3]thiazol-7-yl]-(tetrahydro-furan-3-ylmethyl)-amine]: 51 nM; for `CCCN(c1c(OC)nn2c(-c3c(OC)cc(COC)cc3OC)c(CC)sc12)C1CCOCC1` [Example 9, [3-(2,6-Dimethoxy-4-methoxymethyl-phenyl)-2-ethyl-6-methoxy-pyrazolo[5,1-b][1,3]thiazol-7-yl]-propyl-(tetrahydro-pyran-4-yl)-amine]: 116 nM.
In the case of `CCCCN(CC1COCOC1)c1c(OC)nn2c(-c3c(OC)cc(COC)cc3OC)csc12` [Example 12, Butyl-[3-(2,6-dimethoxy-4-methoxymethyl-phenyl)-6-methoxy-pyrazolo[5,1-b][1,3]thiazol-7-yl)-[1,3]dioxan-5-ylmethyl-amine], the IC50 was determined as 71 nM.
The same measure for `COCc1cc(OC)c(-c2csc3c(N(CC4CC4)C4CCOC4)c(OC)nn23)c(OC)c1` (stereo not drawn) [Example 13, N-(Cyclopropylmethyl)-3-[2,6-dimethoxy-4-(methoxymethyl)phenyl]-6-methoxy-N-(tetrahydrofuran-3-yl)pyrazolo[5,1-b][1,3]thiazole-7-amine]: 56 nM; for `CCCN(CC1CCOC1)c1c(OC)nn2c(-c3cnc(N(C)C)cc3OC)csc12` (stereo not drawn) [Example 16, [3-(6-Dimethylamino-4-methoxy-pyridin-3-yl)-6-methoxy-pyrazolo[5,1-b][1,3]thiazol-7-yl]-propyl-(tetrahydro-furan-3-ylmethyl)-amine]: 132 nM; for `CCCN(c1c(OC)nn2c(-c3c(OC)cc(C)cc3OC)csc12)C1CCOCC1` [Example 17, 3-(2,6-Dimethoxy-4-methylphenyl)-6-methoxy-N-propyl-N-(tetrahydro-2H-pyran-4-yl)pyrazolo[5,1-b][1,3]thiazole-7-amine]: 56 nM.
Take `COc1cc(C(C)OC)cc(OC)c1-c1csc2c(N(CC3CC3)CC3CCOC3)c(OC)nn12` (stereo not drawn) [Example 19, N-(Cyclopropylmethyl)-3-[2,6-dimethoxy-4-(1-methoxyethyl)phenyl]-6-methoxy-N-(tetrahydrofuran-3-ylmethyl)pyrazolo[5,1-b][1,3]thiazole-7-amine]: the IC50 is 52 nM.
The figure for `CCCN(c1c(OC)nn2c(-c3c(OC)cc(CC)cc3OC)csc12)C1CCOCC1` [Example 22, [3-(4-Ethyl-2,6-dimethoxyphenyl)-6-methoxypyrazolo[5,1-b][1,3]thiazol-7-yl]-propyl-(tetrahydro-pyran-4-yl)amine] is 64 nM; for `CCc1cc(OC)c(-c2csc3c(N(CC4CC4)CC4CCOC4)c(OC)nn23)c(OC)c1` (stereo not drawn) [Example 23, Cyclopropylmethyl-[3-(4-ethyl-2,6-dimethoxy-phenyl)-6-methoxy-pyrazolo[5,1-b][1,3]thiazol-7-yl]-(tetrahydro-furan-3-ylmethyl)amine] it is 44 nM; for `CCCN(CCC)c1c(OC)nn2c(-c3c(OC)cc(COC)cc3OC)csc12` [Example 24, 3-[2,6-Dimethoxy-4-(methoxymethyl)phenyl]-6-methoxy-N,N-dipropylpyrazolo[5,1-b][1,3]thiazole-7-amine] it is 26 nM.
The same measure for `COc1cc(C)cc(OC)c1-c1csc2c(N(CC3CC3)C3CCOCC3)c(OC)nn12` [Example 25, N-(Cyclopropylmethyl)-3-(2,6-dimethoxy-4-methylphenyl)-6-methoxy-N-(tetrahydro-2H-pyran-4-yl)pyrazolo[5,1-b][1,3]thiazole-7-amine]: 43 nM; for `COc1cc(C)cc(OC)c1-c1csc2c(N(CC3CC3)CC3CCOC3)c(OC)nn12` (stereo not drawn) [Example 26, N-(Cyclopropylmethyl)-3-(2,6-dimethoxy-4-methylphenyl)-6-methoxy-N-(tetrahydrofuran-3-ylmethyl)pyrazolo[5,1-b][1,3]thiazole-7-amine]: 33 nM; for `CCCCN(CCOC)c1c(OC)nn2c(-c3c(OC)cc(COC)cc3OC)csc12` [Example 28, N-Butyl-3-[2,6-dimethoxy-4-(methoxymethyl)phenyl]-6-methoxy-N-(2-methoxyethyl)pyrazolo[5,1-b][1,3]thiazole-7-amine]: 40 nM.
The figure for `COCc1cc(OC)c(-c2csc3c(N(CC4CCC4)C4CCOC4)c(OC)nn23)c(OC)c1` (stereo not drawn) [Example 29, N-(Cyclobutylmethyl)-3-[2,6-dimethoxy-4-(methoxymethyl)phenyl]-6-methoxy-N-(tetrahydrofuran-3-yl)pyrazolo[5,1-b][1,3]thiazole-7-amine] is 45 nM; for `COc1cc(Cl)cc(OC)c1-c1csc2c(N(CC3CC3)CC3CCOC3)c(OC)nn12` (stereo not drawn) [Example 30, 3-(4-Chloro-2,6-dimethoxyphenyl)-N-(cyclopropylmethyl)-6-methoxy-N-(tetrahydrofuran-3-ylmethyl)pyrazolo[5,1-b][1,3]thiazole-7-amine] it is 49 nM.
For the compound `COCCCN(CC1CC1)c1c(OC)nn2c(-c3c(OC)cc(COC)cc3OC)csc12` [Example 32, N-(Cyclopropylmethyl)-3-[2,6-dimethoxy-4-(methoxymethyl)phenyl]-6-methoxy-N-(3-methoxypropyl)pyrazolo[5,1-b][1,3]thiazole-7-amine], the IC50 stood at 57 nM.
The same measure for `CCCN(c1c(OC)nn2c(-c3c(OC)cc(COC)cc3OC)csc12)C1CCCOCC1` (stereo not drawn) [Example 34, 3-[2,6-Dimethoxy-4-(methoxymethyl)phenyl]-6-methoxy-N-oxepan-4-yl-N-propylpyrazolo[5,1-b][1,3]thiazole-7-amine]: 130 nM.
As to `CCOCc1cc(OC)c(-c2csc3c(N(CCCF)C4CCOCC4)c(OC)nn23)c(OC)c1` [Example 35, [3-(4-Ethoxymethyl-2,6-dimethoxy-phenyl)-6-methoxy-pyrazolo[5,1-b][1,3]thiazol-7-yl]-(3-fluoro-propyl)-(tetrahydro-pyran-4-yl)-amine], the IC50 stood at 89 nM.
With `COCc1cc(OC)c(-c2csc3c(N(CC4CCOC4)CC4CC(F)(F)C4)c(OC)nn23)c(OC)c1` (stereo not drawn) [Example 37, N-[(3,3-Difluorocyclobutyl)methyl]-3-[2,6-dimethoxy-4-(methoxymethyl)phenyl]-6-methoxy-N-(tetrahydrofuran-3-ylmethyl)pyrazolo[5,1-b][1,3]thiazole-7-amine], the IC50 was 95 nM.
For the compound `CCCN(CCCOC)c1c(OC)nn2c(-c3c(OC)cc(COC)cc3OC)csc12` [Example 39, 3-[2,6-Dimethoxy-4-(methoxymethyl)phenyl]-6-methoxy-N-(3-methoxypropyl)-N-propylpyrazolo[5,1-b][1,3]thiazole-7-amine], the IC50 came to 57 nM.
The same measure for `CCOCc1cc(OC)c(-c2csc3c(N(CCOC)CC4CC4)c(OC)nn23)c(OC)c1` [Example 40, N-(Cyclopropylmethyl)-3-[4-(ethoxymethyl)-2,6-dimethoxyphenyl]-6-methoxy-N-(2-methoxyethyl)pyrazolo[5,1-b][1,3]thiazole-7-amine]: 32 nM; for `CCCCN(CCOC)c1c(OC)nn2c(-c3c(OC)cc(COCC)cc3OC)csc12` [Example 41, N-Butyl-3-[4-(ethoxymethyl)-2,6-dimethoxyphenyl]-6-methoxy-N-(2-methoxyethyl)pyrazolo[5,1-b][1,3]thiazole-7-amine]: 25 nM.

The values above are taken from patent publication US8530504B2, “Pyrazolothiazole compound” (Eisai R&D Management Co., Ltd., priority 2009, dated 2013).
